Patent publication US9090593B2, “Bicyclic compounds as Pim inhibitors” (AMGEN INC., priority 2010, dated 2015)
Structures can show the parent of a compound that is named as a salt.

Tests used:
[1] = target: T1, full length recombinant Pim-1 protein (Homo sapiens, UniProt P11309); test: Pim-1 enzyme assay (HTRF, phosphorylation of biotinylated-BAD (S112) peptide); format: biochemical; conditions: read-out: Pim_1_IC50
T1 construct: by full length recombinant Pim-1, Pim-2, or Pim-3 protein; hexahistidine tag followed by a thrombin cleavage site (N); made in house; host or cells: Sf9 (baculovirus) or E. coli (pET28)
T1 sequence (P11309 whole entry): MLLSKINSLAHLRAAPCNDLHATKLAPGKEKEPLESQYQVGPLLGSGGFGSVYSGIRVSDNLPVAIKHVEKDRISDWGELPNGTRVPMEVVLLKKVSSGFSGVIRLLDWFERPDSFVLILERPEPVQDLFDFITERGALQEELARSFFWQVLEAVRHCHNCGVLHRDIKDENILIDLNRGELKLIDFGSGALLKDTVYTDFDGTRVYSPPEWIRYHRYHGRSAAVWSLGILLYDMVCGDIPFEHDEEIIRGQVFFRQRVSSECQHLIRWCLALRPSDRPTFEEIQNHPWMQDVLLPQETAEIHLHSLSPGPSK
How it was run: (§1)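 Full-length His-tagged Pim-1 or Pim-2 (Sf9 or E. coli expressed, purified) phosphorylated biotinylated BAD (S112) peptide in 60 mM Hepes pH 7.0, 0.05% BSA, 2 mM DTT. Reaction stopped with 3 mM EDTA; phospho-BAD read by HTRF with Eu anti-phospho-BAD antibody and streptavidin-APC. IC50 from percent of control by 4-parameter logistic fit.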

KMS-Cell = test: KMS cell IC50 (Table 4); format: cell-based; conditions: KMS cells
[2] = target: T2, full length recombinant Pim-2 protein (Homo sapiens, UniProt Q9P1W9); test: Pim-2 enzyme assay (HTRF, phosphorylation of biotinylated-BAD (S112) peptide); format: biochemical; conditions: read-out: Pim2_IC50
T2 construct: by full length recombinant Pim-1, Pim-2, or Pim-3 protein; hexahistidine tag followed by a thrombin cleavage site (N); made in house; host or cells: Sf9 (baculovirus) or E. coli (pET28)
T2 sequence (Q9P1W9 whole entry): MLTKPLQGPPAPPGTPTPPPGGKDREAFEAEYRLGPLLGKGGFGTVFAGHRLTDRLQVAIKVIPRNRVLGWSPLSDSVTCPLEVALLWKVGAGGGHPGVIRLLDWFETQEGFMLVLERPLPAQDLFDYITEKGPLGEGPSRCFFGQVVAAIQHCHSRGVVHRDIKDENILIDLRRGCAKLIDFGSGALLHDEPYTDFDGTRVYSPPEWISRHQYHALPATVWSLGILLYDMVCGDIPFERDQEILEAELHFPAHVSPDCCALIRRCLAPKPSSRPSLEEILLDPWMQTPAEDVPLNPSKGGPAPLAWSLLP
How it was run: as §1

Row | SMILES | IC50 [1] | IC50 (KMS-Cell) | IC50 [2]
1 | CC(O)c1cccc(-c2ccc3[nH]cc(-c4cncc(O[C@@H]5CCCNC5)n4)c3c2)c1 (mixture of isomers) [Example 359] | 9 nM | 4.84 µM | 21 nM
2 | O[C@@H]1CN(c2cncc(-c3n[nH]c4ccc(-c5c(F)cccc5F)cc34)n2)CC[C@@H]1O (racemic) [Example 248, cis-1-(6-(5-(2,6-difluorophenyl)-1H-indazol-3-yl)-2-pyrazinyl)-3,4-piperidinediol] | 17 nM | > 31.6 µM | 43 nM
3 | Fc1cccc(F)c1-c1ccc2[nH]nc(-c3cncc(CC4CCCNC4)n3)c2c1 (racemic) [Example 272, 5-(2,6-difluorophenyl)-3-(6-(3-piperidinylmethyl)-2-pyrazinyl)-1H-indazole ditrifluoroacetate] | 13 nM | 13 µM | 54 nM
4 | O=c1cc(-c2n[nH]c3ccc(-c4ccc(Cl)cc4F)cc23)nc(O[C@@H]2CNCC[C@H]2F)[nH]1 (racemic) [Example 283, 6-(5-(4-chloro-2-fluorophenyl)-1H-indazol-3-yl)-2-((trans-4-fluoropiperidin-3-yl)oxy)pyrimidin-4(3H)-one trifluoroacetate] | 2 nM | 1.89 µM | 1 nM
5 | CC(c1ccc2[nH]nc(-c3cncc(O[C@H]4CNCCC45CC5)n3)c2c1)C(F)(F)F (single isomer, unassigned) [Example 259] | 13 nM | 2.8 µM | 6 nM
6 | Fc1cccc(F)c1-c1ccc2[nH]nc(-c3cncc(OC4CCNCC45CC5)n3)c2c1 (single isomer, unassigned) [Example 430] | 1 nM | 7.85 µM | 6 nM
7 | Fc1cccc(F)c1-c1ccc2[nH]cc(-c3cncc(OC4CNCCC45CC5)n3)c2c1 (single isomer, unassigned) [Example 438] | 1 nM | 11.9 µM | 2 nM
8 | CC(C)c1ccc2[nH]nc(-c3cncc(O[C@H]4CNCCC45CC5)n3)c2c1 [Example 253, 3-(6-((4R)-6-azaspiro[2.5]oct-4-yloxy)-2-pyrazinyl)-5-(1-methylethyl)-1H-indazole] | 9 nM | 5.58 µM | 9 nM
9 | C=C(c1ccc2[nH]nc(-c3cncc(O[C@H]4CNCCC45CC5)n3)c2c1)C(F)(F)F [Example 257, 3-(6-((4R)-6-azaspiro[2.5]oct-4-yloxy)-2-pyrazinyl)-5-(1-(trifluoromethyl)ethenyl)-1H-indazole] | 4 nM | 1.17 µM | 2 nM
10 | CC(c1ccc2[nH]nc(-c3cncc(O[C@H]4CNCCC45CC5)n3)c2c1)C(F)(F)F (stereo partly drawn) [Example 258, 3-(6-((4R)-6-azaspiro[25]oct-4-yloxy)-2-pyrazinyl)-5-(2,2,2-trifluoro-1-methylethyl)-1H-indazole] | 9 nM | 3.19 µM | 6 nM
11 | COC(=O)c1ccc2[nH]nc(-c3cncc(O[C@H]4CNCCC45CC5)n3)c2c1 [Example 265, methyl 3-(6-((4R)-6-azaspiro[25]oct-4-yloxy)-2-pyrazinyl)-1H-indazole-5-carboxylate bis(2,2,2-trifluoroacetate)] | 9 nM | 5.78 µM | 35 nM
12 | c1cc(-c2ccc3[nH]cc(-c4cncc(O[C@@H]5CCCNC5)n4)c3c2)cc(-c2nnn[nH]2)c1 [Example 355] | 20 nM | > 31.6 µM | 104 nM
13 | Cc1nc(-c2cccc(-c3ccc4[nH]cc(-c5cncc(O[C@@H]6CCCNC6)n5)c4c3)c2)cs1 [Example 357] | 13 nM | > 31.6 µM | 179 nM

The next lines start with the values.

Row | IC50 [1] | IC50 (KMS-Cell) | IC50 [2] | SMILES
14 | 9 nM | 2.19 µM | 5 nM | CC(c1ccc2[nH]nc(-c3cncc(O[C@H]4CNCCC45CC5)n3)c2c1)C(F)(F)F (single isomer, unassigned) [Example 260]
15 | 6 nM | 10 µM | 9 nM | CC(C)C1CCNCC1Oc1cncc(-c2n[nH]c3ccc(-c4c(F)cccc4F)cc23)n1 (single isomer, unassigned) [Example 395]
16 | 13 nM | > 15.8 µM | 37 nM | Fc1cccc(F)c1-c1ccc2[nH]nc(-c3cncc(OC4C=CCNC4)n3)c2c1 (single isomer, unassigned) [Example 427]
17 | 2 nM | 3.05 µM | 4 nM | CC1CNCC(Oc2cncc(-c3n[nH]c4ccc(-c5c(F)cccc5F)cc34)n2)C1 (single isomer, unassigned) [Example 469]
18 | 20 nM | 2.09 µM | 21 nM | CC1CNCC(Oc2nc(O)cc(-c3n[nH]c4ccc(-c5c(F)cccc5F)cc34)n2)C1 (single isomer, unassigned) [Example 568]
19 | 1 nM | 0.282 µM | 1 nM | CC1CNCC(Oc2nc(O)cc(-c3n[nH]c4ccc(-c5c(F)cccc5F)cc34)n2)C1 (single isomer, unassigned) [Example 569]
20 | 4 nM | 4.31 µM | 4 nM | O=C(NC1CC1)c1cccc(-c2ccc3[nH]nc(-c4cncc(O[C@H]5CNCCC56CC6)n4)c3c2)c1 [Example 247, 3-(3-(6-((4R)-6-azaspiro[25]oct-4-yloxy)-2-pyrazinyl)-1H-indazol-5-yl)-N-cyclopropylbenzamide]
21 | 6 nM | 3.28 µM | 11 nM | C=C(C)c1ccc2[nH]nc(-c3cncc(O[C@H]4CNCCC45CC5)n3)c2c1 [Example 256, 3-(6-((4R)-6-azaspiro[2.5]oct-4-yloxy)-2-pyrazinyl)-5-(1-methylethenyl)-1H-indazole]
22 | 6 nM | 1.49 µM | 4 nM | FC(F)(F)C1(c2ccc3[nH]nc(-c4cncc(O[C@H]5CNCCC56CC6)n4)c3c2)CC1 [Example 261, 3-(6-((4R)-6-azaspiro[2.5]oct-4-yloxy)-2-pyrazinyl)-5-(1-(trifluoromethyl)cyclopropyl)-1H-indazole]
23 | 4 nM | 2.22 µM | 5 nM | CC1(c2ccc3[nH]nc(-c4cncc(O[C@H]5CNCCC56CC6)n4)c3c2)CC1 [Example 262, 3-(6-((4R)-6-azaspiro[2.5]oct-4-yloxy)-2-pyrazinyl)-5-(1-methylcyclopropyl)-1H-indazole]
24 | 20 nM | 7.38 µM | 99 nM | N#CCc1ccc2[nH]nc(-c3cncc(O[C@H]4CNCCC45CC5)n3)c2c1 [Example 269, (3-(6-((4R)-6-azaspiro[25]oct-4-yloxy)-2-pyrazinyl)-1H-indazol-5-yl)acetonitrile 2,2,2-trifluoroacetate]
25 | 20 nM | > 31.6 µM | 178 nM | c1cc(-c2ccc3[nH]cc(-c4cncc(O[C@@H]5CCCNC5)n4)c3c2)cc(-c2cc[nH]n2)c1 [Example 351]
26 | 6 nM | 12.6 µM | 41 nM | c1cc(-c2ccc3[nH]cc(-c4cncc(O[C@@H]5CCCNC5)n4)c3c2)cc(-c2ccno2)c1 [Example 356]
27 | 4 nM | 8.52 µM | 20 nM | c1ccc(-c2ccc3[nH]cc(-c4cncc(O[C@@H]5CCCNC5)n4)c3c2)cc1 [Example 358]
28 |  | 0.633 µM | 1 nM | O=c1cc(-c2n[nH]c3cc(F)c(-c4c(F)cccc4F)cc23)nc(O[C@H]2CNCC[C@@H]2F)[nH]1 [Example 544]
